This passage reports MIC results from ChEMBL document CHEMBL1142130, “Quinolone resistance in Helicobacter pylori isolates in Germany” (2007).

Common to all, as to assay type: functional
For assay [1], the system named is Helicobacter pylori. The assay can be described thus: Antimicrobial activity against ciprofloxacin-resistant Helicobacter pylori 4 containing gyrA C261G mutation by Etest method.
Assay [2] concerns Helicobacter pylori. The assay can be described thus: Antimicrobial activity against ciprofloxacin-resistant Helicobacter pylori 4 containing gyrA G271T mutation by Etest method.
Assay [3] deals with Helicobacter pylori. The assay can be described thus: Antimicrobial activity against ciprofloxacin-resistant Helicobacter pylori 26 containing gyrA C261A mutation by Etest method.
The test system of assay [4] is Helicobacter pylori. The assay can be described thus: Antimicrobial activity against ciprofloxacin-resistant Helicobacter pylori 14 containing gyrA A272G mutation by Etest method.
The subject of assay [5] is Helicobacter pylori. The assay can be described thus: Antimicrobial activity against ciprofloxacin-resistant Helicobacter pylori 12 containing gyrA G271A mutation by Etest method.

Converted amounts (≈) assume the structure as drawn.

As to `O=C(O)c1cn(C2CC2)c2cc(N3CCNCC3)c(F)cc2c1=O` [CIPROFLOXACIN], the MIC (as a rule, the lowest concentration that inhibits growth of the organism) in assay [1] was determined as 4 µg/mL (≈ 12.1 µM); in assay [2], 8 µg/mL (≈ 24.1 µM); in assay [3], 4 µg/mL (≈ 12.1 µM); in assay [4], 16 µg/mL (≈ 48.3 µM); in assay [5], 16 µg/mL (≈ 48.3 µM).
